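Interpolation was linear, between the two tested concentrations surrounding the appropriate level; five concentrations were tested over 48 hours in 96-well plates. TGI: total growth inhibition.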
Key:
Assay in all cases: DTP human tumour cell line panel, 48 h
786-0 renal = tested on: 786-0 renal
A498 renal = tested on: A498 renal
A549 NSCLC = tested on: A549 NSCLC
ACHN renal = tested on: ACHN renal
BT-549 breast = tested on: BT-549 breast
CAKI-1 renal = tested on: CAKI-1 renal
CCRF-CEM leukemia = tested on: CCRF-CEM leukemia
COLO 205 colon = tested on: COLO 205 colon
DU-145 prostate = tested on: DU-145 prostate
EKVX NSCLC = tested on: EKVX NSCLC
HCC-2998 colon = tested on: HCC-2998 colon
HCT-116 colon = tested on: HCT-116 colon
HCT-15 colon = tested on: HCT-15 colon
HOP-62 NSCLC = tested on: HOP-62 NSCLC
HOP-92 NSCLC = tested on: HOP-92 NSCLC
HS 578T breast = tested on: HS 578T breast
HT29 colon = tested on: HT29 colon
K-562 leukemia = tested on: K-562 leukemia
KM12 colon = tested on: KM12 colon
LOX IMVI melanoma = tested on: LOX IMVI melanoma
M14 melanoma = tested on: M14 melanoma
MALME-3M melanoma = tested on: MALME-3M melanoma
MCF7 breast = tested on: MCF7 breast
MDA-MB-231 breast = tested on: MDA-MB-231 breast
MDA-MB-435 = tested on: MDA-MB-435
MDA-N = tested on: MDA-N
MOLT-4 leukemia = tested on: MOLT-4 leukemia
NCI-H226 lung = tested on: NCI-H226 lung
NCI-H23 lung = tested on: NCI-H23 lung
NCI-H460 lung = tested on: NCI-H460 lung
NCI-H522 lung = tested on: NCI-H522 lung
NCI/ADR-RES ovarian = tested on: NCI/ADR-RES ovarian
OVCAR-3 ovarian = tested on: OVCAR-3 ovarian
OVCAR-4 ovarian = tested on: OVCAR-4 ovarian
OVCAR-5 ovarian = tested on: OVCAR-5 ovarian
OVCAR-8 ovarian = tested on: OVCAR-8 ovarian
PC-3 prostate = tested on: PC-3 prostate
RPMI-8226 leukemia = tested on: RPMI-8226 leukemia
RXF 393 renal = tested on: RXF 393 renal
SF-268 CNS = tested on: SF-268 CNS
SF-295 CNS = tested on: SF-295 CNS
SF-539 CNS = tested on: SF-539 CNS
SK-MEL-28 melanoma = tested on: SK-MEL-28 melanoma
SK-MEL-5 melanoma = tested on: SK-MEL-5 melanoma
SK-OV-3 ovarian = tested on: SK-OV-3 ovarian
SN12C renal = tested on: SN12C renal
SNB-19 CNS = tested on: SNB-19 CNS
SNB-75 CNS = tested on: SNB-75 CNS
SR leukemia = tested on: SR leukemia
SW-620 colon = tested on: SW-620 colon
T-47D breast = tested on: T-47D breast
TK-10 renal = tested on: TK-10 renal
U251 CNS = tested on: U251 CNS
UACC-257 melanoma = tested on: UACC-257 melanoma
UACC-62 melanoma = tested on: UACC-62 melanoma
UO-31 renal = tested on: UO-31 renal
HL-60(TB) leukemia = tested on: HL-60(TB) leukemia
IGROV1 ovarian = tested on: IGROV1 ovarian
SK-MEL-2 melanoma = tested on: SK-MEL-2 melanoma

Measured: TGI

CCOC(=O)c1c(N2CCCC2)[nH]c(=O)c(C(c2c(O)c(C(=O)OCC)c(N3CCCC3)[nH]c2=O)C(C)C)c1O
64.3 µM: MDA-MB-231 breast
96.5 µM: SNB-75 CNS
not listed: HL-60(TB) leukemia | IGROV1 ovarian | SK-MEL-2 melanoma
> 100 µM: all other assays above

COC(CNC(=O)CNC(=O)c1ccc(C(F)(F)F)cc1)OC
not listed: A498 renal | HCC-2998 colon | HOP-62 NSCLC | LOX IMVI melanoma | OVCAR-3 ovarian | OVCAR-4 ovarian | SK-MEL-28 melanoma
> 100 µM: all other assays above

CN(C)CCCNC(=O)N/N=C/c1ccc(O)cc1
not listed: EKVX NSCLC | HOP-92 NSCLC | LOX IMVI melanoma | OVCAR-4 ovarian | RPMI-8226 leukemia | RXF 393 renal
> 100 µM: all other assays above

O=[N+]([O-])c1cc(Br)cc2cc(Cl)cnc12
32.8 µM: SW-620 colon
24.2 µM: IGROV1 ovarian
92 µM: SNB-75 CNS
6.36 µM: HOP-92 NSCLC
not listed: SK-MEL-2 melanoma
> 100 µM: all other assays above

COC(=O)c1cc(-c2ccc3ccccc3c2)[nH]c(=O)c1C#N
38.7 µM: HL-60(TB) leukemia
not listed: CCRF-CEM leukemia | K-562 leukemia | MOLT-4 leukemia
> 100 µM: all other assays above

O=C(Nc1ccccc1)c1cc2ccccc2c(N=Nc2cccc([N+](=O)[O-])c2)c1O
99.1 µM: HS 578T breast
97.2 µM: SNB-19 CNS
not listed: LOX IMVI melanoma | RPMI-8226 leukemia | HL-60(TB) leukemia
> 100 µM: all other assays above

CC(=O)C(N1CCCCC1)C(O)(C(F)(F)F)C(F)(F)F (stereo unspecified)
not listed: HOP-62 NSCLC | SF-268 CNS | SN12C renal | SK-MEL-2 melanoma
> 100 µM: all other assays above
